Results as given in US9926281B2 (priority 2014, dated 2018).

Tests used:
human ADAMTS-5 = human ADAMTS-5 (Homo sapiens (Human), UniProt Q9UNA0); conditions: read-out: hADAMTS-5 potency IC50
Protocol: Finally, the fluorescence is read on the Envision (Perkin Elmer) after an incubation of 90 min at 37° C.

human TACE = human TACE (Homo sapiens (Human), UniProt P78536); conditions: read-out: TACE potency IC50
Sequence of human TACE (P78536 whole entry, looked up, change not shown): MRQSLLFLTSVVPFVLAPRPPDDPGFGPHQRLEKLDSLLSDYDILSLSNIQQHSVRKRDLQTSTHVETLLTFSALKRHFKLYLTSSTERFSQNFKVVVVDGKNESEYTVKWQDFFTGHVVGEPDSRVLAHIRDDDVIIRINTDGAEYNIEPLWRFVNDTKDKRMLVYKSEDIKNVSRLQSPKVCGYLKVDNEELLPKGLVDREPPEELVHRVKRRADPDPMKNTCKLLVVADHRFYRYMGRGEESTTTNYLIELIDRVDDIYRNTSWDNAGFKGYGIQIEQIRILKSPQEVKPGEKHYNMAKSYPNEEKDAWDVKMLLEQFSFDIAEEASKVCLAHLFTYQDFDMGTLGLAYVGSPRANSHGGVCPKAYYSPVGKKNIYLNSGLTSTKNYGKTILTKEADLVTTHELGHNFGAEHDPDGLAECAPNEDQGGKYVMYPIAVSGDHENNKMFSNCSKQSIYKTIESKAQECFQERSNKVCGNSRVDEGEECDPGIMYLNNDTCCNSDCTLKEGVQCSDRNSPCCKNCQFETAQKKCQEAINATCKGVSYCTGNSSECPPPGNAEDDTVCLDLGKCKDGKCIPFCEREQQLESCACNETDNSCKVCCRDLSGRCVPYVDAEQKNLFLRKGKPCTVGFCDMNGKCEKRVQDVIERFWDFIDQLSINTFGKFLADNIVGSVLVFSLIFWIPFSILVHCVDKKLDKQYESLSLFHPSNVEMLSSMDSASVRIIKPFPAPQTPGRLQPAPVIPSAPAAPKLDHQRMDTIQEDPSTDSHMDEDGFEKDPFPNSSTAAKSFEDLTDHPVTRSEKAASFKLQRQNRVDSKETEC

Sequence of human ADAMTS-5 (Q9UNA0 262-930): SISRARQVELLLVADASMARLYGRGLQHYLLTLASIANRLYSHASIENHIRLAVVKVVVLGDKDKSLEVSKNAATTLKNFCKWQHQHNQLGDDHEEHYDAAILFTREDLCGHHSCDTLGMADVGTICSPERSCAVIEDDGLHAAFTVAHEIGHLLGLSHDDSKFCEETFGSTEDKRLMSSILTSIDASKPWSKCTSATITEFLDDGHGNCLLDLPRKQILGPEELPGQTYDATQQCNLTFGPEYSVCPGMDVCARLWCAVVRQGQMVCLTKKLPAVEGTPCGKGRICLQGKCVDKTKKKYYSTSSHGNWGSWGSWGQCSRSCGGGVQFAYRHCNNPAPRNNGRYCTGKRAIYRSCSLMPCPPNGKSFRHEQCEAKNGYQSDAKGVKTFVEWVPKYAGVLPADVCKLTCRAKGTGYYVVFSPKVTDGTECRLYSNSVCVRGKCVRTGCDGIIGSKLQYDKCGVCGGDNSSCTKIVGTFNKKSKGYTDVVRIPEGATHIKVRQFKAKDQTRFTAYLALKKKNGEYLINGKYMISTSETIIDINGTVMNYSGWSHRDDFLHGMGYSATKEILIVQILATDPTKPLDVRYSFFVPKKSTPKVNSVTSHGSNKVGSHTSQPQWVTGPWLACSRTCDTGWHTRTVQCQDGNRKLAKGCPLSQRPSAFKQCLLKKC

Row | SMILES | IC50 (human ADAMTS-5) | IC50 (human TACE)
1 | C[C@H]1CN(C(=O)CCC2(c3cnccn3)NC(=O)NC2=O)CCN1c1ccc(F)c(Cl)c1 (stereo partly drawn) [compound 349, 5-[3-[(3S)-4-(3-chloro-4-fluoro-phenyl)-3-methyl-piperazin-1-yl]-3-oxo-propyl]-5-pyrazin-2-yl-imidazolidine-2,4-dione] | 62 nM | > 4000 nM
2 | C[C@H]1CN(C(=O)CCC2(c3cn(C)cn3)NC(=O)NC2=O)CCN1c1ccc(F)c(Cl)c1 (stereo partly drawn) [compound 467, 5-[3-[(3S)-4-(3-chloro-4-fluoro-phenyl)-3-methyl-piperazin-1-yl]-3-oxo-propyl]-5-(1-methylimidazol-4-yl)imidazolidine-2,4-dione] | 42 nM | > 4000 nM
3 | C[C@H]1CN(C(=O)CCC2(c3ncccn3)NC(=O)NC2=O)CCN1c1cc(F)cc(Cl)c1 (stereo partly drawn) [compound 463, 5-[3-[(3S)-4-(3-chloro-5-fluoro-phenyl)-3-methyl-piperazin-1-yl]-3-oxo-propyl]-5-pyrimidin-2-yl-imidazolidine-2,4-dione] | 46 nM | > 4000 nM
4 | C[C@H]1CN(C(=O)CC[C@@]2(C)NC(=O)NC2=O)CCN1c1ccc(Cl)c(C(F)(F)F)c1 [compound 472, (5R)-5-[3-[(3S)-4-[4-chloro-3-(trifluoromethyl)phenyl]-3-methyl-piperazin-1-yl]-3-oxo-propyl]-5-methyl-imidazolidine-2,4-dione] | 899 nM | > 4000 nM
5 | C[C@H]1CN(C(=O)CCC2(c3cocn3)NC(=O)NC2=O)CCN1c1cc(Cl)cc(Cl)c1 (stereo partly drawn) [compound 465, 5-[3-[(3S)-4-(3,5-dichlorophenyl)-3-methyl-piperazin-1-yl]-3-oxo-propyl]-5-oxazol-4-yl-imidazolidine-2,4-dione] | 62 nM | 3500 nM
6 | COCC1(CC(C)C(=O)N2CCN(c3ccc(Cl)c(C(F)(F)F)c3)[C@@H](C)C2)NC(=O)NC1=O (stereo partly drawn) [compound 478, 5-{3-[(S)-4-(4-Chloro-3-trifluoromethyl-phenyl)-3-methyl-piperazin-1-yl]-2-methyl-3-oxo-propyl}-5-methoxymethyl-imidazolidine-2,4-dione] | 61 nM | > 4000 nM
7 | C[C@H]1CN(C(=O)CCC2(C3CC3)NC(=O)NC2=O)CCN1c1cnc2ccccc2c1 (stereo partly drawn) [compound 289, 5-cyclopropyl-5-[3-[(3S)-3-methyl-4-(3-quinolyl)piperazin-1-yl]-3-oxo-propyl]imidazolidine-2,4-dione] | 97 nM | > 4000 nM
8 | CC(CC1(CCN)NC(=O)NC1=O)C(=O)N1CCN(c2ccc(F)c(F)c2)CC1 (centres unmarked) [Cpd 241, 5-(2-aminoethyl)-5-[3-[4-(3,4-difluorophenyl)piperazin-1-yl]-2-methyl-3-oxo-propyl]imidazolidine-2,4-dione] | 232 nM | > 12000 nM
9 | C[C@H]1CN(C(=O)CCC2(C3CC3)NC(=O)NC2=O)CCN1c1cccc(-c2ccc(Cl)nn2)c1 (stereo partly drawn) [compound 381, 5-[3-[(3S)-4-[3-(6-chloropyridazin-3-yl)phenyl]-3-methyl-piperazin-1-yl]-3-oxo-propyl]-5-cyclopropyl-imidazolidine-2,4-dione] | 1970 nM | > 20000 nM
10 | C[C@H]1CN(C(=O)CCC2(c3cocn3)NC(=O)NC2=O)CCN1c1cc(F)cc(F)c1 (stereo partly drawn) [compound 362, 5-[3-[(3S)-4-(3,5-difluorophenyl)-3-methyl-piperazin-1-yl]-3-oxo-propyl]-5-oxazol-4-yl-imidazolidine-2,4-dione] | 50 nM | > 20000 nM
11 | C[C@H]1CN(C(=O)CCC2(C3CC3)NC(=O)NC2=O)CCN1c1cc(Cl)nc(Cl)c1 (stereo partly drawn) [compound 258, 5-cyclopropyl-5-[3-[(3S)-4-(2,6-dichloro-4-pyridyl)-3-methyl-piperazin-1-yl]-3-oxo-propyl]imidazolidine-2,4-dione] | 1530 nM | > 20000 nM
12 | C[C@H]1CN(C(=O)CCC2(c3ccccn3)NC(=O)NC2=O)CCN1c1cccc(F)c1 (stereo partly drawn) [compound 345, 5-[3-[(3S)-4-(3-fluorophenyl)-3-methyl-piperazin-1-yl]-3-oxo-propyl]-5-(2-pyridyl)imidazolidine-2,4-dione] | 50 nM | > 4000 nM
13 | Cc1cccc(C2(CCC(=O)N3CCN(c4ccc(Cl)cc4)[C@@H](C)C3)NC(=O)NC2=O)n1 (stereo partly drawn) [compound 312, 5-[3-[(3S)-4-(4-chlorophenyl)-3-methyl-piperazin-1-yl]-3-oxo-propyl]-5-(6-methyl-2-pyridyl)imidazolidine-2,4-dione] | 40 nM | 3680 nM
14 | Cc1cc(N2CCN(C(=O)CCC3(C)NC(=O)NC3=O)CC2)c(F)cc1Cl (centres unmarked) [compound 267, 5-[3-[4-(4-chloro-2-fluoro-5-methyl-phenyl)piperazin-1-yl]-3-oxo-propyl]-5-methyl-imidazolidine-2,4-dione] | 3080 nM | > 4000 nM
15 | C[C@H]1CN(C(=O)CCC2(C3CC3)NC(=O)NC2=O)CCN1c1cc(Cl)ccn1 (stereo partly drawn) [compound 325, 5-[3-[(3S)-4-(4-chloro-2-pyridyl)-3-methyl-piperazin-1-yl]-3-oxo-propyl]-5-cyclopropyl-imidazolidine-2,4-dione] | 796 nM | > 20000 nM
16 | C[C@H]1CN(C(=O)CCC2(C3CC3)NC(=O)NC2=O)CCN1c1cc(F)cc(C#N)c1 (stereo partly drawn) [compound 334, 3-[(2S)-4-[3-(4-cyclopropyl-2,5-dioxo-imidazolidin-4-yl)propanoyl]-2-methyl-piperazin-1-yl]-5-fluoro-benzonitrile] | 430 nM | > 20000 nM
17 | O=C1NC(=O)C(CCC(=O)N2CCN(c3ccncc3)CC2)(C2CC2)N1 (centres unmarked) [compound 278, 5-cyclopropyl-5-[3-oxo-3-[4-(4-pyridyl)piperazin-1-yl]propyl]imidazolidine-2,4-dione] | > 20000 nM | > 20000 nM
18 | CC(CC1(c2ccccn2)NC(=O)NC1=O)C(=O)N1CCN(c2cc(Cl)cc(Cl)c2)[C@@H](C)C1 (stereo partly drawn) [compound 442, 5-(3-((S)-4-(3,5-dichlorophenyl)-3-methylpiperazin-1-yl)-2-methyl-3-oxopropyl)-5-(pyridin-2-yl)imidazolidine-2,4-dione] | 24 nM | 789 nM
19 | COC[C@]1(CC(C)C(=O)N2CCN(c3cc(F)cc(-c4cn[nH]c4)c3)[C@@H](C)C2)NC(=O)NC1=O (stereo partly drawn) [compound 376, 5-[3-[(3S)-4-[3-fluoro-5-(1H-pyrazol-4-yl)phenyl]-3-methyl-piperazin-1-yl]-2-methyl-3-oxo-propyl]-5-(methoxymethyl)imidazolidine-2,4-dione] | 52 nM | 2430 nM
20 | COCC1(CC(C)C(=O)N2CCN(c3cc(F)c(Cl)c(F)c3)CC2)NC(=O)NC1=O (centres unmarked) [compound 448] | 19 nM | 2990 nM
21 | CC(CC1(CN2CCC(F)(F)C2)NC(=O)NC1=O)C(=O)N1CCN(c2ccc(F)c(Cl)c2)[C@@H](C)C1 (stereo partly drawn) [compound 253, 5-[3-[(3S)-4-(3-chloro-4-fluoro-phenyl)-3-methyl-piperazin-1-yl]-2-methyl-3-oxo-propyl]-5-[(3,3-difuoropyrrolidin-1-yl)methyl]imidazolidine-2,4-dione] | 35 nM | > 20000 nM
22 | CC(CC1(C)NC(=O)NC1=O)C(=O)N1CCN(c2cccnc2)[C@@H](C)C1 (stereo partly drawn) [compound 275, 5-methyl-5-[2-methyl-3-[(3S)-3-methyl-4-(3-pyridyl)piperazin-1-yl]-3-oxo-propyl]imidazolidine-2,4-dione] | 266 nM | > 20000 nM
